Earlier results, collected in patent US6461848B1, “Human heparanase polypeptide and cDNA” (Novartis AG, priority 1998, dated 2002).
One block for each molecule: values may come before it.

Tests used:
[1] = tested on: human pancreatic (Ca-Pan-2) adenocarcinoma; settings: subcutaneous Ca-Pan-2 adenocarcinoma, nude mice
[2] = molecular target: T1, heparanase (Homo sapiens, UniProt Q9Y251)
T1 sequence (Q9Y251 36-543): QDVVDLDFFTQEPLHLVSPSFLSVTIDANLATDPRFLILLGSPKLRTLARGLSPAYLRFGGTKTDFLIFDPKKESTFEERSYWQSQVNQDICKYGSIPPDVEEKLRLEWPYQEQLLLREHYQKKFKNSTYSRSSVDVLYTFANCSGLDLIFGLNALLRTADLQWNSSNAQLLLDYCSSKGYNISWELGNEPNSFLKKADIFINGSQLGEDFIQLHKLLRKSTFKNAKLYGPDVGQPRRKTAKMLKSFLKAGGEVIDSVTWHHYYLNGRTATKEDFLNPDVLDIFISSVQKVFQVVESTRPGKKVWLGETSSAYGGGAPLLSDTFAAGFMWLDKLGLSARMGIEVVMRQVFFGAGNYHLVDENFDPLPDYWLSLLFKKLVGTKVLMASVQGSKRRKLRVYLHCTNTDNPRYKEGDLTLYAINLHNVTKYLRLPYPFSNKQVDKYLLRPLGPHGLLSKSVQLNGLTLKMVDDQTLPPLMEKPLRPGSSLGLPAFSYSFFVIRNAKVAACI

[3] = tested on: B16-F10 melanoma; settings: C57BL/6N mice, B16-F10 experimental lung metastasis
[4] = molecular target: T2, heparanase (Mus musculus, UniProt Q6YGZ1)
T2 sequence (Q6YGZ1 28-535): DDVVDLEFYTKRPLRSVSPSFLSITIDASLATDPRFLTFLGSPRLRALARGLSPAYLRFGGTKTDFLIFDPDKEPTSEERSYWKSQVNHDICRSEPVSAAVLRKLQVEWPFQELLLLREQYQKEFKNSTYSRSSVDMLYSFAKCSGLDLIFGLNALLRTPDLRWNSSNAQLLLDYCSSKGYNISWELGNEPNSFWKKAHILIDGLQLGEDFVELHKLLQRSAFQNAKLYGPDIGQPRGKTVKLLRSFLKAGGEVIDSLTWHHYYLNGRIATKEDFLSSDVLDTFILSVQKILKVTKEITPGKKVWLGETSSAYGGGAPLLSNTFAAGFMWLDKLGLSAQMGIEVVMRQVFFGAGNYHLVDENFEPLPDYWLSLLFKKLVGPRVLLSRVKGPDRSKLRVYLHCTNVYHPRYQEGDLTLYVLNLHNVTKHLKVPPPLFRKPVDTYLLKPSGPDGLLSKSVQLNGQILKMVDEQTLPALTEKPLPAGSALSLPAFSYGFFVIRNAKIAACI

[5] = molecular target: T3, murin melanoma heparanase (Mus musculus, UniProt Q6YGZ1)
T3 construct: host or cells: murine melanoma
T3 sequence (Q6YGZ1 28-535): T2 sequence (Q6YGZ1 28-535)

[6] = tested on: murin melanoma

Molecule: 2,3-O-desulfated heparin
inhibition of tumor growth [1]: inhibit
inhibition of heparanase activity [2]: inhibit
survival times [3]: prolonged

inhibition of heparanase [4]: not
Molecule: O=C(O)[C@@H](O)[C@H]1OC(=O)[C@H](O)[C@H]1O [1,4-saccharolactone]

inhibition of murin melanoma heparanase [5]: strongly inhibit
Molecule: Cc1ccc(C(=O)Nc2ccc(S(=O)(=O)O)c3cc(S(=O)(=O)O)cc(S(=O)(=O)O)c23)cc1NC(=O)c1cccc(NC(=O)Nc2cccc(C(=O)Nc3cc(C(=O)Nc4ccc(S(=O)(=O)O)c5cc(S(=O)(=O)O)cc(S(=O)(=O)O)c45)ccc3C)c2)c1 [Suramin]
inhibition of melanoma invasion [6]: strongly inhibit

inhibition of heparanase [4]: inhibited
Molecule: heparin
